{
  "source": "patent US20090131470A1",
  "about": "“PYRAZOLE-SUBSTITUTED BENZIMIDAZOLE DERIVATIVES FOR USE IN THE TREATMENT OF CANCER AND AUTOIMMUNE DISORDERS” (priority 2005, published 2009)",
  "format_in_all_cases": "biochemical",
  "key": {"PKA": {"target": "T1, PKA (Homo sapiens, UniProt P17612)", "T1 construct": "purchased Upstate", "assay": "PKA kinase assay (Kemptide substrate)", "details": "100 μM ATP"}, "Flt1": {"target": "Flt1 (Homo sapiens, UniProt P17948)", "sequence (P17948 27-1338, species assumed)": "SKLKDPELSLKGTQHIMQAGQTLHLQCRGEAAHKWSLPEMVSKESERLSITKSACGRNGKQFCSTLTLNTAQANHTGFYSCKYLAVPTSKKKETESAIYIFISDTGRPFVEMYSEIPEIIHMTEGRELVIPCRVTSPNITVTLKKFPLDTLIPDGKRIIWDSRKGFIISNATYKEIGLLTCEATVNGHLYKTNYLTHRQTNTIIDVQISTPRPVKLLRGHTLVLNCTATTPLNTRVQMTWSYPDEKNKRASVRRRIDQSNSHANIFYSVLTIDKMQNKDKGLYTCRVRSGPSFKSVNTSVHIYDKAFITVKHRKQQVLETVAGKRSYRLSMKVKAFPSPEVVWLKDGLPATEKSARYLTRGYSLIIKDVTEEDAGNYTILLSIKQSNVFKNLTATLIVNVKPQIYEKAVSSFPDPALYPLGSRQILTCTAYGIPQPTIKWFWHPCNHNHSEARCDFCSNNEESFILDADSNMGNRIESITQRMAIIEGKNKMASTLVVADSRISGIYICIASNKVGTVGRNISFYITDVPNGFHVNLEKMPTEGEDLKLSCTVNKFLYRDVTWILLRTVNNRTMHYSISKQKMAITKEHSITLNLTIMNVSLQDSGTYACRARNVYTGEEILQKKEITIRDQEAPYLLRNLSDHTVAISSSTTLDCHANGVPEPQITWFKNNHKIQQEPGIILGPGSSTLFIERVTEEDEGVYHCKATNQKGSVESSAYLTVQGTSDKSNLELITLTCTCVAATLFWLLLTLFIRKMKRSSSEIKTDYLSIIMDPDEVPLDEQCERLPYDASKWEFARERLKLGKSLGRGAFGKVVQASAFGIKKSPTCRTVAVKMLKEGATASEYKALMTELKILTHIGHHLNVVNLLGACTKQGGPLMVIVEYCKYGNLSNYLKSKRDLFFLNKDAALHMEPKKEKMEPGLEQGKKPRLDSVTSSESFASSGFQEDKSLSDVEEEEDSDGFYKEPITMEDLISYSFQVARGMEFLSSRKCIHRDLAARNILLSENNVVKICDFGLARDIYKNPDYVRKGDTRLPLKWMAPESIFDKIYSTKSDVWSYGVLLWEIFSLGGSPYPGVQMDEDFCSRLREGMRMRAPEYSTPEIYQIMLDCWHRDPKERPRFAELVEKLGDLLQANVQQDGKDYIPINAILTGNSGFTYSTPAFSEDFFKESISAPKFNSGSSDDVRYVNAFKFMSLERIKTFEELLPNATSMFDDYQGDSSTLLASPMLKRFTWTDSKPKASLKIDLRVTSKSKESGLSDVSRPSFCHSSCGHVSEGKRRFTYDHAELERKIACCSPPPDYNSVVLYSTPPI", "assay": "Kinase selectivity screening (example 14)"}, "FGFR3": {"target": "FGFR3 (Homo sapiens, UniProt P22607)", "sequence (P22607 23-806, species assumed)": "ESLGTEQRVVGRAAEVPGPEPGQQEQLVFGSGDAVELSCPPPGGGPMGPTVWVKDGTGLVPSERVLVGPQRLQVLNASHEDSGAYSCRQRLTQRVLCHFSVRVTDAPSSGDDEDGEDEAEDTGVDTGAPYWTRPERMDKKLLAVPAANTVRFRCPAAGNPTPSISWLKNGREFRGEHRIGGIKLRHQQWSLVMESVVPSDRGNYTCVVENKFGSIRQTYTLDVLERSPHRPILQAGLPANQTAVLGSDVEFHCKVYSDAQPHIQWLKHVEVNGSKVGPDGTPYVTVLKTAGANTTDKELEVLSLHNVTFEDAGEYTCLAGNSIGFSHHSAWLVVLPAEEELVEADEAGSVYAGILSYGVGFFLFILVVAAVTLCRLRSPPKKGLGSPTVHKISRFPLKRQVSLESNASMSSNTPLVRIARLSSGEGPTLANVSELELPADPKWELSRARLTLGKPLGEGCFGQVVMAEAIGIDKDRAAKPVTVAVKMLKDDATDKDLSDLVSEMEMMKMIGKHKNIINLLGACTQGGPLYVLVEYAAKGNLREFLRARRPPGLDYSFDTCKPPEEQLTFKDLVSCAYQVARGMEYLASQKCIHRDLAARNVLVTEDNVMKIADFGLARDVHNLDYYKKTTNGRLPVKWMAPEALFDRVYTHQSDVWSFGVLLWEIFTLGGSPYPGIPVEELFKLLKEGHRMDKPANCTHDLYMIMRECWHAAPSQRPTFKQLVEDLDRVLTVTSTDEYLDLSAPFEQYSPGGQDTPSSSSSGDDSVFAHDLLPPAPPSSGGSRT", "assay": "Kinase selectivity screening (example 14)"}, "PDK1": {"target": "T2, PDK1 (Homo sapiens, UniProt O15530)", "T2 sequence (O15530 1-556)": "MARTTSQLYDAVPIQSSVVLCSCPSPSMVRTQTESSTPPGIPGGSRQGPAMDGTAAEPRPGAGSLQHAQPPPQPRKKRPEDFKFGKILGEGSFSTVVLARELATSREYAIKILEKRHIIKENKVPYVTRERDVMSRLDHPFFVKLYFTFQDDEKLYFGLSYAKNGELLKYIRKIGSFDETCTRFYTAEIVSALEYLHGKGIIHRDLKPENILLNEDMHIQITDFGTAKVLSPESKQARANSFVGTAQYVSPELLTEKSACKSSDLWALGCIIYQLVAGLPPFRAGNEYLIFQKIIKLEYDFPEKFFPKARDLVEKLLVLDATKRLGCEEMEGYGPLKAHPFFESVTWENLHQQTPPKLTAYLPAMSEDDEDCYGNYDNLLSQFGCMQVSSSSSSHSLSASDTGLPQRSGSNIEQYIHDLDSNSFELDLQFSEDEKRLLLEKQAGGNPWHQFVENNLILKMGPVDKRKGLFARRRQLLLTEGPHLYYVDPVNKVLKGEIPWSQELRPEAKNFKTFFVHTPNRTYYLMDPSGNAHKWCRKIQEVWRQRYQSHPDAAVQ", "assay": "PDK1 kinase assay (33P peptide phosphorylation)", "details": "0.01 mM ATP, 60 min at 30° C.; read-out: PDK-1 IC50"}, "GST-Chk1 enzyme": {"target": "T3, GST-Chk1 enzyme (Homo sapiens, UniProt O14757)", "T3 sequence (O14757 1-476)": "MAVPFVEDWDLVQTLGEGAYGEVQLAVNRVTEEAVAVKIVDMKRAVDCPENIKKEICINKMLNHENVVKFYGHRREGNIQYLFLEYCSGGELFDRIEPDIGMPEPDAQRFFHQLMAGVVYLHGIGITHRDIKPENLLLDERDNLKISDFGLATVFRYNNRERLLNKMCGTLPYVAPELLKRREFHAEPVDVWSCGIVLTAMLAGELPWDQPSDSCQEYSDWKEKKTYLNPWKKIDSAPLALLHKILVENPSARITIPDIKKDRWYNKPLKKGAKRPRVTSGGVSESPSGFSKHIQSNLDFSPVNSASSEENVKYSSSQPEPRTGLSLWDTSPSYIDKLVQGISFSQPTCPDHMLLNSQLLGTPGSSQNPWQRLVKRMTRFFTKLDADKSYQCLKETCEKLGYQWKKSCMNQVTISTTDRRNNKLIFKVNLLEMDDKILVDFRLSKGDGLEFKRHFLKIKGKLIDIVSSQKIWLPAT", "assay": "Chk1 kinase assay (33P Chktide phosphorylation)", "details": "0.01 mM ATP, 40 minutes at 30° C.; read-out: CHK-1 IC50"}, "KDR": {"target": "KDR (Homo sapiens, UniProt P35968)", "sequence (P35968 20-1356, species assumed)": "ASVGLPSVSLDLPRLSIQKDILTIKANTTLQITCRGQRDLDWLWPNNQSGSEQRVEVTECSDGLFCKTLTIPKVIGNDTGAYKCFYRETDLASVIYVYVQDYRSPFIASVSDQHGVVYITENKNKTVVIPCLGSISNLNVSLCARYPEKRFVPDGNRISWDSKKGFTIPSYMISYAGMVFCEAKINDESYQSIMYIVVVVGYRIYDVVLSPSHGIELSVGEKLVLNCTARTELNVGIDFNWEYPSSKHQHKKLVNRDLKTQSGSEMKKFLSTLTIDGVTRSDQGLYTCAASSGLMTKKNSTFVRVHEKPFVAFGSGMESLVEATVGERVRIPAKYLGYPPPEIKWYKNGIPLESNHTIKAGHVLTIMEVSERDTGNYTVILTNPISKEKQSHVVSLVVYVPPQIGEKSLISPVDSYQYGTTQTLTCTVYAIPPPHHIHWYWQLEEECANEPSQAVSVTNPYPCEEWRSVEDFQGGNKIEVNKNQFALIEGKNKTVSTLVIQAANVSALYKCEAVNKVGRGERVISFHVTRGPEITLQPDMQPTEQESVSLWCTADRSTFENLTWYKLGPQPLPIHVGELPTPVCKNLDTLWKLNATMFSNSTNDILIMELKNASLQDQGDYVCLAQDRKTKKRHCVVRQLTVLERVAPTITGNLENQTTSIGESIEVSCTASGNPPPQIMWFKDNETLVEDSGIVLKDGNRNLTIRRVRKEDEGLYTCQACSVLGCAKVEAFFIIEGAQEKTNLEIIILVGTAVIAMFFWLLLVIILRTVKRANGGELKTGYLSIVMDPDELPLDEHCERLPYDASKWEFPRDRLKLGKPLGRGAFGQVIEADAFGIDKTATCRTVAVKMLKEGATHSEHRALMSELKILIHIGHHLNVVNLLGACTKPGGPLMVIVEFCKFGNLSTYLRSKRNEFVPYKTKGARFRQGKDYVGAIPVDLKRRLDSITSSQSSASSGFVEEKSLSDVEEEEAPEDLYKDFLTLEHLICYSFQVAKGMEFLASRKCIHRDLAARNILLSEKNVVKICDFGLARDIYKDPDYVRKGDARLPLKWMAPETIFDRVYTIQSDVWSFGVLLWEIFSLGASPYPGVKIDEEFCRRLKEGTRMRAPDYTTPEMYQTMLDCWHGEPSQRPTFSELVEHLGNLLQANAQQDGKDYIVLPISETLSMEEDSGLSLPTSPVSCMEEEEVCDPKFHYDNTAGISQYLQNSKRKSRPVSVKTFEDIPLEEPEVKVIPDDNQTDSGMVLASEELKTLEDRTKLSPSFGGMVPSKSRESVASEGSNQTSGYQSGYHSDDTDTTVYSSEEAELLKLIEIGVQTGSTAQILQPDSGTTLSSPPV", "assay": "Kinase selectivity screening (example 14)"}},
  "data": [
    {"smiles": "Cc1[nH]nc(-c2nc3cc4cn[nH]c4cc3[nH]2)c1C(=O)NC1CCNCC1", "note": "[Example 14]", "values": [
      {"measurement": "IC50", "setting": "PKA", "result": 7200, "unit": "nM"},
      {"measurement": "selectivity versus Flt1", "setting": "Flt1", "result": "> 20", "unit": "fold"},
      {"measurement": "selectivity versus FGFR3", "setting": "FGFR3", "result": "> 20", "unit": "fold"},
      {"measurement": "IC50", "setting": "PDK1", "result": 10, "unit": "nM"},
      {"measurement": "IC50", "setting": "GST-Chk1 enzyme", "result": 6, "unit": "nM"},
      {"measurement": "selectivity versus KDR", "setting": "KDR", "result": "> 20", "unit": "fold"}
    ]}
  ]
}
